pIC50: −log10 of the molar value. Where two headings read alike, the source gives them in different places.
How the values were obtained:
bovine COX-1 = target: T1, bovine COX-1 (Bos taurus, UniProt O62664); experiment: Bovine in vitro whole blood COX inhibitor assay (TXB2); format: cell-based
T1 construct: using a bovine whole blood assay; from tissue; host or cells: heparinized bovine whole blood, protamine-treated to induce clotting
T1 sequence (O62664 25-600): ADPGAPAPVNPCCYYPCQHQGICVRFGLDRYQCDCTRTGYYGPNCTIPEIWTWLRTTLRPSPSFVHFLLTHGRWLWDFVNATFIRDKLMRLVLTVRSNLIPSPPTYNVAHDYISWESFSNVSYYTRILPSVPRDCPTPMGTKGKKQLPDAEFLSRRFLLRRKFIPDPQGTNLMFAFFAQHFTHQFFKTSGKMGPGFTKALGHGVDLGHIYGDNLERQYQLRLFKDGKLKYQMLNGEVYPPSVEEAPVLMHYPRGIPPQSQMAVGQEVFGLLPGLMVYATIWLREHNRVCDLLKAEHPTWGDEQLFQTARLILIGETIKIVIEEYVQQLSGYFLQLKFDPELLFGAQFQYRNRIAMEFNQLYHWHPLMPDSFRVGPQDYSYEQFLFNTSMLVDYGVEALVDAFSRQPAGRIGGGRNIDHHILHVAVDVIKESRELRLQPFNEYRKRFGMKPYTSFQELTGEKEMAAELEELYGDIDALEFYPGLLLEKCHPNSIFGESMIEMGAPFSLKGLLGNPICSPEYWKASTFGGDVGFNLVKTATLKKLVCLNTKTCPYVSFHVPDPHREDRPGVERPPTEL
Procedure: (§1) Briefly, heparinized blood was collected for both assays. The COX-1 assay involved treatment of the blood with protamine; to reverse the anti-coagulation effects of heparin; thus, inducing clotting and production of Thromboxane B2 (TXB2). The COX-2 assay involved treatment of blood with LPS to produce PGE2. Both assays included the presence of varying amounts of inhibitors, to inhibit the TXB2 or PGE2. […] Percent inhibition was calculated from the raw data for each drug dose based on the mean of the TXB2 or PGE2 concentrations. Then the mean % inhibition curves (% inhibition versus drug concentration) were analyzed via non-linear regression to yield individual IC50 and IC90 values.

bovine COX-2 = target: T2, bovine COX-2 (Bos taurus, UniProt O62698); experiment: Bovine in vitro whole blood COX inhibitor assay (PGE2); format: cell-based
T2 construct: using a bovine whole blood assay; from tissue; host or cells: heparinized bovine whole blood, LPS-treated
T2 sequence (O62698 18-604): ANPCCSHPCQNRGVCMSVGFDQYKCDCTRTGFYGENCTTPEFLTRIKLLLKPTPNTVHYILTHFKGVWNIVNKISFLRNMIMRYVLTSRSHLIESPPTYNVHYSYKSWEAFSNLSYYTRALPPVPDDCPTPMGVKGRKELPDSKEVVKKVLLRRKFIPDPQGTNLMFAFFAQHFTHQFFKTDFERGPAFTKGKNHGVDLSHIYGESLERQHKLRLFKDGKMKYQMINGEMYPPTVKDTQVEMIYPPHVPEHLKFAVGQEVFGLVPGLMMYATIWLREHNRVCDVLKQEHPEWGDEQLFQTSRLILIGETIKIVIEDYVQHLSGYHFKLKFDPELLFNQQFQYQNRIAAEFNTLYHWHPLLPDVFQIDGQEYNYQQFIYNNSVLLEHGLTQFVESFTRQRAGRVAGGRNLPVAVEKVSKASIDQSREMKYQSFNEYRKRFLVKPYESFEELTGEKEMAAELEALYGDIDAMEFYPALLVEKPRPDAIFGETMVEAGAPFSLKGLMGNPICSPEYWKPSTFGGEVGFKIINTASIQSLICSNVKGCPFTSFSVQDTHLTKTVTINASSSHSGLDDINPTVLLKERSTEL
Procedure: as §1

swine COX-1 = swine COX-1 (Sus scrofa, UniProt A0A287ANF9); experiment: Porcine alveolar macrophage COX inhibitor assay (TXB2 read-out); format: cell-based; conditions: for IC90: read-out: COX-1 IC90
Chain of swine COX-1 (A0A287ANF9 25-600): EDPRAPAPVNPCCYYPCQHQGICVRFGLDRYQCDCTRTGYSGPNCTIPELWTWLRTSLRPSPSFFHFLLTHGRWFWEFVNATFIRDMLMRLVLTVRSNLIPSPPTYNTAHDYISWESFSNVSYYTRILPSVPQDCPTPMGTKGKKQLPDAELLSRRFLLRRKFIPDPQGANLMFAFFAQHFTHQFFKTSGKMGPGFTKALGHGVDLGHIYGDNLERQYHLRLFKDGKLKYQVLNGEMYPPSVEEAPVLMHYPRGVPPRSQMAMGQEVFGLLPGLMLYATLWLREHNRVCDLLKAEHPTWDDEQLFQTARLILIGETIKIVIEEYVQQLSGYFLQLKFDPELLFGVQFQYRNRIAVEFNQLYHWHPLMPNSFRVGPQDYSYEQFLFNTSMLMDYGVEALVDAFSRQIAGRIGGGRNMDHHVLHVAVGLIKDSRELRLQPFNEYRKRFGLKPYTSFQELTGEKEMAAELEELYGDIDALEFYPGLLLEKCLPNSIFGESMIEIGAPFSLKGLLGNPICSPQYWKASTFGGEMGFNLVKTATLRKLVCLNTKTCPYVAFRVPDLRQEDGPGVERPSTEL
Procedure: (§2) Alveolar macrophages were treated with a lipopolysaccharide (LPS), in the presence of varying amounts of inhibitors, to produce thromboxane B2 (TXB2) and/or prostaglandin E2 (PGE2). […] Each drug was tested in three different experiments on three different days (at a minimum).

bradykinin = conditions: Julou 1976; cited from earlier work
swine COX-2 = swine COX-2 (Sus scrofa, UniProt Q8SPR3); experiment: Porcine alveolar macrophage COX inhibitor assay (PGE2 read-out); format: cell-based; conditions: for IC90: read-out: COX-2 IC90
Chain of swine COX-2 (Q8SPR3 entry or part of it): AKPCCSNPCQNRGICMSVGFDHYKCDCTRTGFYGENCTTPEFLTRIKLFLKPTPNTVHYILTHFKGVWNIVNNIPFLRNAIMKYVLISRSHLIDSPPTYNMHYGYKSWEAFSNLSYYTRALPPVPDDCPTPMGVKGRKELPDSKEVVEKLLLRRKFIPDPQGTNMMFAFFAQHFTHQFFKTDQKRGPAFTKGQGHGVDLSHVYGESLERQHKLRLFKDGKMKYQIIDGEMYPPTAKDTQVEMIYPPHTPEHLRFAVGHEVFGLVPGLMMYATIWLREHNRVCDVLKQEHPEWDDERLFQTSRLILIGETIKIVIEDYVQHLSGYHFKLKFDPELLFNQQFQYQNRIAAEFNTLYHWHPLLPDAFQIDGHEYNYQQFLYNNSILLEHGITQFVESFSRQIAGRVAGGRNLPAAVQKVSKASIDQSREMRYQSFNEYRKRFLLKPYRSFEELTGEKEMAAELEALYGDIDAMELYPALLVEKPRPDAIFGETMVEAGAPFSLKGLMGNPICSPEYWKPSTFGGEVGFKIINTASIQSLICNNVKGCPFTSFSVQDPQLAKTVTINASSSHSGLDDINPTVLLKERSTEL
Procedure: as §2

[1] = Hydrolysis in swine plasma; format: in vitro ADME
[2] = Hydrolysis in swine liver microsomes; format: in vitro ADME
[3] = test system: swine influenza virus (SIV)-induced fever; format: in vivo
LPS-induced lameness = experiment: LPS-induced swine synovitis model; format: in vivo; conditions: validation study, 2.2 mg/kg, IM
[4] = read-out: COX-1 IC50, LPS-treated porcine alveolar macrophages, TXB2 by ELISA, 21-24 hours incubation
[5] = read-out: COX-2 IC50, LPS-treated porcine alveolar macrophages, PGE2 by ELISA, 21-24 hours incubation
[6] = LPS-treated porcine alveolar macrophages, TXB2 by ELISA, 21-24 hours incubation
[7] = LPS-treated porcine alveolar macrophages, PGE2 by ELISA, 21-24 hours incubation, read-out: COX-2 IC50
[8] = LPS-treated porcine alveolar macrophages, PGE2 by ELISA, 21-24 hours incubation
[9] = LPS-treated porcine alveolar macrophages, TXB2 by ELISA, 21-24 hours incubation, read-out: COX-1 IC50

`CC(C(=O)O)c1cccc(C(=O)c2ccccc2)c1` (racemic) [Ketoprofen, 2-(3-benzoylphenyl)-propionic acid] gave a pIC50 (bovine COX-1) of 7.52, a pIC50 (bovine COX-2; read-out: IC50 against bovine COX-2) of 6.66 and a pIC50 (swine COX-1; [4]) of 8.15. For the same molecule, the IC90 (swine COX-1) was 0.08 µM, the pIC50 (swine COX-1; read-out: IC50 against swine ortholog of COX-1, one range given for COX-1 and COX-2) was 8.15 to 8.22 and the “functional bradykinin antagonist activity, effects greater than indomethacin” value (bradykinin) was 8 times. For the same molecule, the pIC50 (swine COX-2; [5]) was 8.22, the IC90 (swine COX-2) was 0.08 µM and the pIC50 (swine COX-2; read-out: IC50 against swine ortholog of COX-2, one range given for COX-1 and COX-2) was 8.15 to 8.22.

In the case of `COC(=O)C(C)c1cccc(C(=O)c2ccccc2)c1` (stereo not shown) [Formula 1, methyl 2-(3-benzoylphenyl)propanoate], the “hydrolysis in swine plasma” value [1] was “moderately or slowly”, the pIC50 (bovine COX-1) was 6.30 and the IC90 (bovine COX-1; read-out: IC90 COX-1) was 3.1 µM. For the same molecule, the pIC50 (bovine COX-2) was 6.54, the IC90 (bovine COX-2; read-out: IC90 COX-2) was 2.29 µM and the pIC50 (swine COX-1; [4]) was 6.59. The IC90 (swine COX-1) was 1.68 µM, the “hydrolysis in swine liver microsomes” value [2] was “hydrolyzed rapidly” and the pIC50 (swine COX-2; [5]) was 6.89. The IC90 (swine COX-2) was 0.84 µM, the “potency relative to Meloxicam” value (swine COX-2; swine COX, Table 1) was “about 5 times” and the “anti-pyretic activity continues through (post-dose)” value ([3]; 6 mg/kg IM in Miglyol 812) was no less than 72 h. For the same molecule, the “activity compared with vehicle at t=35 hours (11 hours post-dose)” value ([3]; Formula 1 4, 5, 6 mg/kg IM, Banamine 2.2 mg/kg IM) was “remained active”, the “fever reduction compared with vehicle” value ([3]; young gilts, in Miglyol 812, 4, 5, 6 mg/kg IM, 24 hours after SIV, all timepoints from 1 hour post-dose) was “significantly reduced fever” and the “onset of anti-pyretic efficacy post-dose” value ([3]; young gilts, in Miglyol 812, 4, 5 and 6 mg/kg IM) was 1 h.

In the case of `Cc1c(Nc2ncccc2C(=O)O)cccc1C(F)(F)F` [Flunixin], the “reduction of LPS-induced lameness” value (LPS-induced lameness) was “effective at reducing LPS-induced lameness”, the IC90 (swine COX-1; [6]) was 0.747 µM and the pIC50 (swine COX-1; [4]) was 7.18. The pIC50 (swine COX-2; [7]) was 7.48 and the IC90 (swine COX-2; [8]) was 0.507 µM.

`C[C@H](C(=O)O)c1cccc(C(=O)c2ccccc2)c1` (single isomer, unassigned) [Ketoprofen (S)-enantiomer] showed a pIC50 (swine COX-1; [9]) of 8.70, an IC90 (swine COX-1; [6]) of 0.06 µM and a pIC50 (swine COX-2; [7]) of 9.00. It also gave an IC90 (swine COX-2; [8]) of 0.04 µM.

For `Cc1cnc(NC(=O)C2=C(O)c3ccccc3S(=O)(=O)N2C)s1` [Meloxicam], the pIC50 (swine COX-1; [9]) was 5.99, the IC90 (swine COX-1) was 49.3 µM and the pIC50 (swine COX-2; [5]) was 6.25. For the same molecule, the IC90 (swine COX-2) was 9 µM.

With `CCOC(=O)C(C)c1cccc(C(=O)c2ccccc2)c1` (stereo not shown) [Formula 2, ethyl 2-(3-benzoylphenyl)propanoate] the “hydrolysis in swine plasma” value [1] was “moderately or slowly” and the “hydrolysis in swine liver microsomes” value [2] was “hydrolyzed rapidly”.

In the case of `CC(C(=O)OCCNC(=O)c1cccnc1)c1cccc(C(=O)c2ccccc2)c1` (stereo not shown) [Formula 3, 2-(nicotinamido)ethyl 2-(3-benzoylphenyl)propanoate], the “hydrolysis in swine plasma” value [1] was “moderately or slowly”, the pIC50 (swine COX-1; [4]) was 6.82 and the IC90 (swine COX-1) was 4.86 µM. For the same molecule, the “hydrolysis in swine liver microsomes” value [2] was “hydrolyzed rapidly”, the pIC50 (swine COX-2; [5]) was 6.92 and the IC90 (swine COX-2) was 0.93 µM.

In the case of `CC(C(=O)O)c1ccc2c(c1)[nH]c1ccc(Cl)cc12` (stereo not shown) [Carprofen], the pIC50 (swine COX-1; [9]) was 5.30, the IC90 (swine COX-1) was 58.4 µM and the pIC50 (swine COX-2; [5]) was 5.50. For the same molecule, the IC90 (swine COX-2) was 39 µM.
